According to paper PMC5398486, “Cheminformatics-aided discovery of small-molecule Protein-Protein Interaction (PPI) dual inhibitors of Tumor Necrosis Factor (TNF) and Receptor Activator of NF-κB Ligand (RANKL)” (PLoS Computational Biology, 2017):

Tests used:
BM viability (MTT assay) = format: cell-based; details: primary bone marrow cells, M-CSF 25 ng/mL, read-out: LC50 (RANKL complexes, BM viability)
Procedure: BMs were plated on 96-well plates at a density of 10^5 cells/well and treated with T8 and T23 at various concentrations, in the presence of M-CSF (25 ng/mL) for 48 hours. Cell viability was determined by the 3-(4,5-dimethylthiazol-2-yl)-2,5-diphenyltetrazolium bromide (MTT) colorimetric assay, which measures the ability of viable cells to reduce a soluble tetrazolium salt to an insoluble purple formazan precipitate.[63] After removal of the medium, each well was incubated with 0.5 mg/mL MTT (Sigma-Aldrich, St. Louis, MO) in serum-free α-MEM at 37°C for 3 h. At the end of the incubation period, the medium was removed and the intracellular formazan was solubilized with 200 μL DMSO and quantified by reading the absorbance at 550 nm on a microplate reader (Optimax; Molecular Devices, Sunnyvale, CA). Cell viability (%) was expressed as a percentage of the negative control treated without compounds. LC50 values were calculated as mean ± SEM from three independent experiments.

human RANKL = target: T1, human RANKL (Homo sapiens, UniProt O14788); experiment: RANKL-induced osteoclastogenesis / osteoclastic (TRAP) activity assay in bone marrow cells; format: cell-based; details: 50 ng/ml human RANKL + 25 ng/ml M-CSF, read-out: IC50 (RANKL complexes, TRAP activity)
T1 sequence (O14788 140-317 limits assumed): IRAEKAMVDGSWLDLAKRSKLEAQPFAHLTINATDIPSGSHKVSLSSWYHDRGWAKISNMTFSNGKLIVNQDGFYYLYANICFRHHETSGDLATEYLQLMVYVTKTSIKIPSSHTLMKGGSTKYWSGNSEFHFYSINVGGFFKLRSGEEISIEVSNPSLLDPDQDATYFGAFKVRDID
Procedure: To visualize osteoclasts, cell cultures were stained with TRAP (tartrate-resistant acid phosphatase), using an acid phosphatase leukocyte (TRAP) kit (Sigma-Aldrich). Osteoclasts were identified as TRAP-positive multinucleated cells containing more than three nuclei.
To measure osteoclast activity, bone marrow cells were cultured for four days as described above and lysed with 0.2% Triton X-100. TRAP activity was measured by the conversion of p-nitrophenyl phosphate to p-nitrophenol in the presence of sodium tartrate. Thus, cell lysates were incubated with 5.5 mM phosphatase substrate diluted in 100 mM citrate buffer and 10 mM sodium tartrate, for 40 minutes at 37°C. The reaction was stopped by addition of 0.4 N sodium hydroxide and absorbance was measured at 405 nm using a microplate reader (Molecular Devices). TRAP activity was normalized to total protein content as determined by the Bradford assay (Bio-Rad protein assay). TRAP activity per μg of total protein was expressed as a percentage of the positive control treated without compounds. IC50 values were calculated as mean ± SEM from three independent experiments performed in duplicate.

TNF/TNFR1 interaction = target: T2, TNF/TNFR1 interaction (Homo sapiens, UniProt P01375); experiment: TNF/TNFR1 ELISA assay; format: binding
T2 construct: purchased PeproTech
Procedure: 96-well plates were coated with 0.1 mg/mL recombinant soluble human TNFR1 (PeproTech) in PBS overnight at 4°C. […] After two consecutive rounds of washes, plates were incubated with a rabbit anti-human-TNF antibody (provided by Prof. W. A. Buurman, University of Maastricht) and an anti-rabbit secondary antibody conjugated with HRP (Vector Laboratories). Both incubations were for 1 h and were performed at room temperature. Following a last round of washes, the signal was finally developed using the TMB Substrate Kit (ThermoFisher Scientific) and was measured spectrophotometrically at 450 nm. Experiments were performed in triplicate. Having established that the selected compounds obstruct TNF function, and since TNF exerts its functions mainly through interacting with the TNFR1 receptor, a further test was performed to evaluate the effect of inhibition on this protein-receptor interaction.

T2 sequence (P01375 77-233 limits assumed): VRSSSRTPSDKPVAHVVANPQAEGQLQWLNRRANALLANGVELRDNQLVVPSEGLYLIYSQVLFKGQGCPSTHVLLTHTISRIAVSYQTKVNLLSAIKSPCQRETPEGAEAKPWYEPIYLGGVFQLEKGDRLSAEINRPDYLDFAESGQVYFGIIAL

| Structure (SMILES) | CC50 at 48 h (BM viability (MTT assay)) [µM] | IC50 (human RANKL) [µM] | IC50 (TNF/TNFR1 interaction) [µM] |
| --- | --- | --- | --- |
| O=C(NNC(=NS(=O)(=O)c1ccc(-n2nc(C(F)(F)F)cc2-c2cccs2)cc1)N1CCCC1)c1ccc(Cl)cc1 [Compound T8, N-[(4-chlorobenzoyl)amino]-N'-[4-[5-thiophen-2-yl-3-(trifluoromethyl)pyrazol-1-yl]phenyl]sulfonylpyrrolidine-1-carboximidamide] | 42.6 ± 4.3 | 9 ± 0.7 | 30 ± 2.3 |
| COc1cc(OC(C)=O)c(-c2cc(OC(C)=O)c(OC)cc2OC(C)=O)cc1OC(C)=O [Compound T23, [4-acetyloxy-2-(2,5-diacetyloxy-4-methoxyphenyl)-5-methoxyphenyl] acetate] | 5.9 ± 0.3 | 2.6 ± 0.2 | 3 ± 0.1 |
